In US20240130675A1, “Methods for Treating Autism Spectrum Disorder” (The General Hospital Corporation, priority 2021, published 2024):

Key:
adults with HF-ASD = conditions: cited from earlier work
PgACC glutamate activity = PgACC glutamate activity by 2D-JPRESS 1H MRS at 4T, pre- and post-treatment; format: in vivo, human
Protocol: Glutamate response to memantine therapy in the PgACC was assessed by acquiring spectroscopic MRI pre- and post-treatment.
Healthy Control Participants were enrolled for spectroscopic neuro-imaging data acquisition to form a control group. Healthy controls (HC) were age, sex, and IQ-matched with enrolled ASD participants. HC participants were with no significant autistic traits, as screened by SRS-2 raw score of<60, and with no major psychopathology, as established by the K-SADS-E and confirmed by clinical diagnostic interview.
Data Acquisition—Proton spectra were acquired at 4T using a two-dimensional J-resolved (2D-JPRESS) ^1HMRS protocol. A 2D-JPRESS sequence was chosen to improve reliability for spectral fitting of the metabolites(Gonenc et al., 2010; Moore et al., 2007), allow analysis of glutamate alone versus ratios or combined measures (e.g., Glx), and confirm that measured metabolic differences truly arise from differences in metabolic levels and not from T2 relaxation time differences. […] Data were collected in 12 TE-stepped spectra with the echo-time ranging from 30 to 250 ms in 20 ms increments, with TR=2s, averages=16, scan duration=7 minutes.
Data Processing: Spectral analysis was conducted in a fully automated fashion using the commercially available LCModel package (version 6.2-1F). After the 2D-JPRESS dataset was resolved into a series of one-dimensional spectra where each spectrum was modeled and fitted with GAMMA simulated96 J-resolved basis sets, glutamate activity levels were derived from the total integral across the J-series. Glutamate transverse relaxation time (T2) was obtained from the raw peak vs. TE decay curve fitted with Levenberg-Marquardt algorithm using an exponential decay function (for glutamate T2) convoluted with a polynomial function (for glutamate J-coupling) which was obtained from the GAMMA simulation run with previously measured spectral parameters (Govindaraju, Young, & Maudsley, 2000). Data quality was assessed by LCModel calculated Full Width Half Maximum (FWHM), Signal to Noise Ratio (SNR) and Cramer-Rao Lower Bounds (CRLB).
The primary outcome was analyzed using Pearson's chi-square test at the a priori defined significance level of 0.05. Secondary measures of efficacy were analyzed using mixed-effects regression models with robust standard errors to account for the repeated measures on each subject. The primary and secondary measures were compared between memantine versus placebo as well as between those with high versus normal baseline glutamate activity levels. Participants were categorized as having high versus normal glutamate activity levels at baseline using z-scores. The population mean and SD for z-score calculations were derived from healthy control glutamate activity levels (baseline and endpoint). Glutamate activity levels with z-scores≥1 were categorized as high glutamate activity levels, those with z-scores<1 and >−1 were categorized as normal glutamate activity levels and those with z-scores≤−1 were categorized as low glutamate activity levels. Changes in PgACC glutamate activity levels within groups were tested using paired t-tests and changes between groups were tested using two-sample t-tests. We also performed ROC curve analyses to determine the predictive utility of baseline PgACC glutamate activity levels in identifying treatment responders within the memantine and placebo groups. All analyses apart from the analysis of the primary outcome were considered exploratory. Analyses were performed using a modified intent-to-treat analysis set which included all randomized patients who were regarded exposed to study medication (completed at least two weeks of treatment) and had at least one follow-up assessment.

CC12CC3CC(C)(C1)CC(N)(C3)C2 [MEM, memantine]
Social behaviors (adults with HF-ASD; 12-week treatment, 20 mg/day, adults with HF-ASD): significant improvement in social behaviors
Responders (adults with HF-ASD; pilot study, 15-20 mg daily): four out of seven
PgACC Glutamate Activity BL (PgACC glutamate activity; High-Glu ASD Sample, MEM Group N = 10, baseline): 109.1 ± 11.9
PgACC Glutamate Activity EP (PgACC glutamate activity; High-Glu ASD Sample, MEM Group N = 10, endpoint): 78.7 ± 13.6
PgACC Glutamate Activity MD (PgACC glutamate activity; High-Glu ASD Sample, MEM Group N = 10, mean difference BL to EP): −30.3 ± 23.3
PgACC Glutamate Activity ASD vs. HC MD @ EP (PgACC glutamate activity; High-Glu ASD Sample, MEM Group N=10 vs HC N = 13): −2.5 ± 34.3
PgACC Glutamate Activity ASD vs. HC MD @ BL (PgACC glutamate activity; High-Glu ASD Sample, MEM Group N=10 vs HC N = 16): −32.5 ± 32.4
PgACC Glutamate Activity BL (PgACC glutamate activity; High-Glu ASD Sample, MEM Responders N = 8, baseline): 111.1 ± 12.5
PgACC Glutamate Activity EP (PgACC glutamate activity; High-Glu ASD Sample, MEM Responders N = 8, endpoint): 75.8 ± 13.6
PgACC Glutamate Activity MD (PgACC glutamate activity; High-Glu ASD Sample, MEM Responders N = 8, mean difference BL to EP): −35.4 ± 23.5
PgACC Glutamate Activity ASD vs. HC MD @ EP (PgACC glutamate activity; High-Glu ASD Sample, MEM Responders N=8 vs HC N = 13): 0.5 ± 35.7
PgACC Glutamate Activity ASD vs. HC MD @ BL (PgACC glutamate activity; High-Glu ASD Sample, MEM Responders N=8 vs HC N = 16): −34.5 ± 34.4
MD in Glu w/ Tx: MD MEM vs PBO (PgACC glutamate activity; High-Glu ASD, MEM = 10 PBO = 8): −21.5 ± 37.3
MD in Glu w/ Tx: MD H-Glu vs N-Glu (PgACC glutamate activity; MEM Group, H-Glu N = 10 vs N-Glu N = 5): 32.2 ± 43.1
PgACC Glutamate Activity BL (PgACC glutamate activity; Normal-Glu ASD Sample, MEM Group/Non-Responders N = 5, baseline): 84.1 ± 8.6
PgACC Glutamate Activity EP (PgACC glutamate activity; Normal-Glu ASD Sample, MEM Group/Non-Responders N = 5, endpoint): 86.0 ± 2.8
PgACC Glutamate Activity MD (PgACC glutamate activity; Normal-Glu ASD Sample, MEM Group/Non-Responders N = 5, mean difference BL to EP): 1.9 ± 10.8
PgACC Glutamate Activity ASD vs. HC MD @ EP (PgACC glutamate activity; Normal-Glu ASD Sample, MEM Group/Non-Responders N=5 vs HC N = 13): −9.7 ± 37.2
MD in Glu w/ Tx: MD MEM vs PBO (PgACC glutamate activity; Normal-Glu ASD, MEM = 5): −6.3 ± 24.1
PgACC Glutamate Activity ASD vs. HC MD @ BL (PgACC glutamate activity; Unselected ASD Sample, MEM Group (MEM=19) vs HC N = 16): −19.8 ± 34.5^[MEM=19]
PgACC Glutamate Activity BL (PgACC glutamate activity; Unselected ASD Sample, MEM Group N = 15, baseline, mean ± SD): 100.8 ± 16.1
PgACC Glutamate Activity EP (PgACC glutamate activity; Unselected ASD Sample, MEM Group N = 15, endpoint, mean ± SD): 81.2 ± 11.6
PgACC Glutamate Activity MD (PgACC glutamate activity; Unselected ASD Sample, MEM Group N = 15, mean difference BL to EP): −19.6 ± 25.1
PgACC Glutamate Activity ASD vs. HC MD @ EP (PgACC glutamate activity; Unselected ASD Sample, MEM Group N=15 vs HC N = 13): −4.9 ± 31.2
PgACC Glutamate Activity BL (PgACC glutamate activity; Unselected ASD Sample, MEM Non-responders N = 7, baseline): 88.9 ± 10.9
PgACC Glutamate Activity EP (PgACC glutamate activity; Unselected ASD Sample, MEM Non-responders N = 7, endpoint): 87.3 ± 3.9
PgACC Glutamate Activity MD (PgACC glutamate activity; Unselected ASD Sample, MEM Non-responders N = 7, mean difference BL to EP): −1.6 ± 10.7
PgACC Glutamate Activity ASD vs. HC MD @ EP (PgACC glutamate activity; Unselected ASD Sample, MEM Non-responders N=7 vs HC N = 13): −11.1 ± 33.1
PgACC Glutamate Activity ASD vs. HC MD @ BL (PgACC glutamate activity; Unselected ASD Sample, MEM Non-responders N=7 vs HC N = 16): −12.3 ± 34.9
PgACC Glutamate Activity BL (PgACC glutamate activity; Unselected ASD Sample, MEM Responders N = 8, baseline): 111.1 ± 12.5
PgACC Glutamate Activity EP (PgACC glutamate activity; Unselected ASD Sample, MEM Responders N = 8, endpoint): 75.8 ± 13.6
PgACC Glutamate Activity MD (PgACC glutamate activity; Unselected ASD Sample, MEM Responders N = 8, mean difference BL to EP): −35.4 ± 23.5
PgACC Glutamate Activity ASD vs. HC MD @ EP (PgACC glutamate activity; Unselected ASD Sample, MEM Responders N=8 vs HC N = 13): 0.48 ± 35.7
PgACC Glutamate Activity ASD vs. HC MD @ BL (PgACC glutamate activity; Unselected ASD Sample, MEM Responders N=8 vs HC N = 16): -34.5 ± 34.4
MD in Glu w/ Tx: MD MEM vs PBO (PgACC glutamate activity; Unselected ASD, MEM = 15, PBO = 16): −12.2 ± 38.3
Magnitude of PgACC glutamate reduction, memantine versus placebo (PgACC glutamate activity; high glutamate sample): significantly higher
PgACC glutamate activity with treatment versus HCs (PgACC glutamate activity; high glutamate sample, memantine group): not significantly different from HCs
Change with treatment in PgACC glutamate activity, baseline to endpoint (PgACC glutamate activity; high glutamate sample, memantine treated group): significant reduction
Change with treatment in PgACC glutamate activity, baseline to endpoint (PgACC glutamate activity; normal-glutamate sample): did not change significantly
Change with treatment in PgACC glutamate activity, baseline to endpoint (PgACC glutamate activity; unselected sample of ASD, memantine treated group): significant reduction
